Counter-ions that a name gives are not always drawn. Like-named read-outs stand apart in the source and are kept apart here.
What was measured:
Assay type in all cases: physicochemical
[1] = Test of the dissolution speed; conditions: 1 mg salt in 2 mL water; for Absorbance After 1 min / Absorbance After 30 min: absorbance at 450 nm, fully dissolved = 100
Protocol: 1 mg of each PQQ salt shown in Table 7 was added to an acryl-made absorbance measurement cell, and 2 mL of water was added thereto and the absorbance at 450 nm was measured.

[2] = Test of the reactivity with ascorbic acid; conditions: for State of the solution after adding ascorbic acid, after 2 hours / State of the solution after adding ascorbic acid, after 1 day: 1 g/L PQQ salt in water, 1 mL + 0.5 mL of 100 g/L ascorbic acid aqueous solution
Protocol: Each PQQ salt shown in Table 5 was dissolved in water so as to become 1 g/L. 0.5 mL of a 100 g/L ascorbic acid aqueous solution was added to 1 mL of the solution, and its states after 2 hours, after 1 day and after 2 days were observed.

[3] = Test of the solubility; conditions: for Solubility Ratio: ratio to Comp. Ex. 1 (Na2PQQ = 1); for Solubility: room temperature of 23° C., calculated from absorbance at 260 nm
Protocol: 50 mg of each PQQ salt shown in Table 6 was added to 0.5 mL of water so as to become supersaturated. Here, in the case where a PQQ salt was completely dissolved in this concentration, the amount of water was reduced. Thereafter, an ultrasonic wave was applied on the solution at room temperature of 23° C. The solution was subjected to a centrifugal separator; and the supernatant was subjected to a UV measurement by diluting it using a phosphoric acid buffer (pH: 7.4, manufactured by Gibco Corp.) so that the absorbance at 260 nm became in the range of 0 to 1. The solubility was calculated from the absorption.

[4] = Stability in alkalinity, from the liquid chromatography chart; conditions: solid obtained from alkaline solution
Protocol: PQQ was identified using the following apparatus.
Apparatus: a high performance liquid chromatography system, Lc-20A, manufactured by Shimadzu Corp.
Column: YMC-Pack ODS-Tms (5 μm), 150×4.6 mm I.D.
Measurement temperature: 40° C.
Detection: absorbance at 260 nm

| SMILES | Dissolution speed, in words [1] | Absorbance After 1 min [1] | Absorbance After 30 min [1] | State of the solution after adding ascorbic acid, after 2 hours [2] | State of the solution after adding ascorbic acid, after 1 day [2] | Color change with ascorbic acid in a long-term observation [2] | Solubility Ratio [3] | Solubility ([3]; thermodynamic from solid, water, read-out: Solubility) [mM] | Decomposed substances / stability in the alkalinity [4] | Solubility ([3]; water) [mM] | Solubility, in words ([3]; water, 23° C.) | State of the solution after adding ascorbic acid, after 2 hours ([2]; Trisodium Salt) | State of the solution after adding ascorbic acid, after 1 day ([2]; Trisodium Salt) |
| --- | --- | --- | --- | --- | --- | --- | --- | --- | --- | --- | --- | --- | --- |
| O=C(O)c1cc(C(=O)O)c2c(n1)C(=O)C(=O)c1cc(C(=O)O)[nH]c1-2 [Example 1, PQQ Tetrasodium Salt] | higher dissolution speed than the PQQ disodium salt | 88 | 92 | red solution | red solution | hardly generated color change | 58 | 463 | – | – | – | – | – |
| O=C(O)c1cc(C(=O)O)c2c(n1)C(=O)C(=O)c1cc(C(=O)O)[nH]c1-2.[Li].[Li].[Na].[Na] [Example 6, PQQ Disodium Dilithium Salt] | – | – | – | red solution | red solution | – | 11 | – | no decomposed substances and was stable even in the alkalinity | 89 | – | – | – |
| O=C([O-])c1cc(C(=O)[O-])c2c(n1)C(=O)C(=O)c1cc(C(=O)O)[nH]c1-2.[Na+].[Na+] [Comp. Ex. 1, PQQ Disodium Salt, reference compound] | – | 41 | 48 | brown deposit | brown deposit | – | 1 | – | – | 7.99 | – | – | – |
| O=C(O)c1cc(C(=O)O)c2c(n1)C(=O)C(=O)c1cc(C(=O)O)[nH]c1-2.[Li].[Li].[Li].[Li] [Example 5, PQQ Tetralithium Salt] | – | – | – | red solution | red solution | – | 82 | – | no decomposed substances and was stable even in the alkalinity | 655 | more easily dissolved than the PQQ tetrasodium salt | – | – |
| O=C(O)c1cc(C(=O)O)c2c(n1)C(=O)C(=O)c1cc(C(=O)O)[nH]c1-2 [Comp. Ex. 2, PQQ Trisodium Salt, reference compound] | – | – | – | – | – | – | 3.8 | – | – | 30.4 | – | brown deposit | brown deposit |
| O=C(O)c1cc(C(=O)O)c2c(n1)C(=O)C(=O)c1cc(C(=O)O)[nH]c1-2.[K].[K].[K].[K] [Example 7, PQQ tetrapotassium salt] | – | 71 | 85 | red solution | red solution | hardly generated color change | 10.5 | – | no decomposed substances and was stable even in the alkalinity | 84 | – | – | – |

Source: patent US9394298B2, “Pyrroloquinoline quinone tetraalkali salt and crystal thereof, methods for producing these, and composition” (Mitsubishi Gas Chemical Company, Inc., priority 2012, dated 2016)
